What was measured:
analgesia = conditions: mouse, in vivo; cited from earlier work
acute pain, bunionectomy = assay: Efficacy (SPID48) of 3 to 2 product vs morphine vs oxycodone, bunionectomy study (Example 2); format: in vivo, human; conditions: for Mean SPID48 Score: 48 hr; for pain control by SPID48 (judged analgesic dose): low doses alone: morphine 6 mg, oxycodone 4 mg

Row | SMILES | interaction with morphine, morphine-6-β-glucuronide, codeine, and 6-acetylmorphine (analgesia) | Mean SPID48 Score (acute pain, bunionectomy; 6 mg q6h) | Mean SPID48 Score (acute pain, bunionectomy; 12 mg q6h) | pain control by SPID48 (judged analgesic dose) (acute pain, bunionectomy) | Mean SPID48 Score (acute pain, bunionectomy; 4 mg q6h) | Mean SPID48 Score (acute pain, bunionectomy; 8 mg q6h)
1 | CCC(=O)C(C[C@@H](C)N(C)C)(c1ccccc1)c1ccccc1 [L-methadone] | exhibited synergy | – | – | – | – | –
2 | CN1CC[C@]23c4c5ccc(O)c4O[C@H]2[C@@H](O)C=C[C@H]3[C@H]1C5 [Morphine, morphine] | – | 51 | 106 | gave pain control | – | –
3 | COc1ccc2c3c1O[C@H]1C(=O)CC[C@@]4(O)[C@@H](C2)N(C)CC[C@]314 [Oxycodone, oxycodone] | – | – | – | gave pain control | 60 | 99

Source: patent US20110046173A1 (priority 2009, published 2011)
